Structures can show the parent of a compound that is named as a salt.

These results are taken from patent US10752596B2, “Nitrogen-containing heteroaryl compound and pharmaceutical use thereof” (JAPAN TOBACCO INC., priority 2017, dated 2020).

Chain of human GLUT9 (Q9NRM0 other isoform, or with tags, fused parts or gaps): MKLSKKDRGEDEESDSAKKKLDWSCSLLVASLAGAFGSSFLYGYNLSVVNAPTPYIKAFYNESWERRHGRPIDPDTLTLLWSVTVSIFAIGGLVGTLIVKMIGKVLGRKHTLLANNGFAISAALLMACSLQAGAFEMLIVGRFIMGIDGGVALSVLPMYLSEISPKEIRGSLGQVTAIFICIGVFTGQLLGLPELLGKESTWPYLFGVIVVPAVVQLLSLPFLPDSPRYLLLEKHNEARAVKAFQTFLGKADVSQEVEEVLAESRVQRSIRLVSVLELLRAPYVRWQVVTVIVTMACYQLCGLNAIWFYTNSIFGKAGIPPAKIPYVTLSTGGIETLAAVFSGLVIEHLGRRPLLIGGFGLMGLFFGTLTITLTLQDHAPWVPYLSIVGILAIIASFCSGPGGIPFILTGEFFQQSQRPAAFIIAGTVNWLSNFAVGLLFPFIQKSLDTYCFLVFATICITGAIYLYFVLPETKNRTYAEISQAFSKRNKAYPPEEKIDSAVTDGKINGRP

In the first assay the target is human GLUT9 (Homo sapiens (Human), UniProt Q9NRM0). As to the kind of experiment: Evaluation of human GLUT9 inhibitory activity ([14C] uric acid uptake in human GLUT9 expressing HEK293T cells transduced with Uricase/Hyper). It counts as cell-based. The conditions noted are these: HEK-293T, 10 μM compound, human GLUT9 stably expressing HEK293T cells, read-out: GLUT9 inhibitory rate at 10 μM of compound. How it is done:
A method for measuring GLUT9 inhibitory activity using human GLUT9 expressing cells transduced with Uricase/Hyper is shown hereinafter. GLUT9 inhibitory activity ([…]) of the test compound was calculated based on the intracellular uptake amount of labeled uric acid ([^14C] uric acid) transported by GLUT9.
1. Preparation of Human GLUT9 Expression Plasmid
Human GLUT9S coding region (NM_001001290.1) was amplified by PCR method using PrimeSTAR MAX DNA Polymerase (Takara Bio). The obtained PCR product was subjected to agarose gel electrophoresis, and the desired size of PCR product was purified by QIAquick Gel Extraction Kit (QIAGEN). Next, pEBMulti-Bsd vector (Wako Pure Chemical Industries, Ltd.) was subjected to digestion using restriction enzymes SalI and EcoR V, and linked to the PCR product containing GLUT9S by In-Fusion reaction using In-Fusion HD Cloning Kit (Takara Bio). XL10-Gold Competent Cells (Agilent Technologies) were transformed in In-Fusion reaction solution, and the obtained transfectants were cultured with shaking overnight in LB medium to which Blasticidin S HCl (Thermo Fisher Scientific) was added. Human GLUT9 expression plasmid DNA was prepared from the collected transfectants using EndoFree Plasmid Kit (Takara Bio).
2. Establish of Human GLUT9 Stably Expressing Cell
HEK293T cells (American Type Culture Collection, DS Pharma Biomedical) were seeded in a 6 well plate at 1×10^6 cells/well. Next day, human GLUT9 expression plasmid was transfected by using Lipofectamine 3000 Reagent (Thermo Fisher Scientific) as follows. Lipofectamine 3000 Reagent (5 μL) was diluted with Opti-MEM (125 μL, Thermo Fisher Scientific). Separately, plasmid DNA (2.5 μg) was diluted with Opti-MEM (125 μL), and P3000 Reagent (5 μL) was added thereto. The obtained solution was mixed with the previously obtained diluted solution, and the mixture was left stand at room temperature for 5 min, and added to the cells. Next day, the transfected cells were diluted and reseeded in a 6 well plate at 4×10^5 cells/well, and drug selection was performed in the presence of 30 μg/mL of Blasticidin S HCl, and thereby, Blasticidin-resistant human GLUT9 stably expressing cell line was established. Mock cells were prepared by introducing pEBMulti-Bsd vector into HEK293T cells in a similar manner.
3. Preparation of Uricase/Hyper Expression Plasmid
Uricase/Hyper expression plasmid was prepared by linking the coding regions of Aspergillus Flavus-derived uricase gene and pHyPer-Cyto vector (Evrogen) HyPer gene to the pEBMulti-Hyg vector (Wako Pure Chemical Industries, Ltd.) and then introducing it. The preparation method was performed by reference to Gout and Nucleic Acid Metabolism 2013, 37(2), 93-101, and seven repeated linker sequence of glycine-glycine-glycine-serine was prepared herein.
4. Preparation of Human GLUT9-Uricase/Hyper Coexpressing Cell
Human GLUT9 stably expressing cells were seeded at 3.6×10^7 cells per 225 cm^2 flask. Next day, Uricase/Hyper expression plasmid was transfected by using Lipofectamine 3000 Reagent as follows. Lipofectamine 3000 Reagent (40 μL) was diluted with Opti-MEM (750 μL). Separately, plasmid DNA (20 μg) was diluted with Opti-MEM (750 μL), and P3000 Reagent (40 μL) was added thereto. The obtained solution was mixed with the previously obtained diluted solution, and the mixture was left stand at room temperature for 5 min, and added to the cells. Next day, transfected cells were collected to prepare human GLUT9-Uricase/Hyper coexpressing cells.
5. Evaluation of GLUT9 Inhibitory Activity
Uricase/Hyper transiently-transfected human GLUT9 stably expressing cells or mock cells (blank) were seeded in a 96 well plate (Corning) at 1.6×10^5 cells/well, and cultured overnight at 37° C., 5% CO2. D-MEM/high glucose (Wako Pure Chemical Industries, Ltd.) containing 10% Fetal Bovine Serum (Lifetechnology) and 100 units/ml penicillin/100 μg/ml streptomycin (GIBCO) was used as a medium.
As for `CCCCNC(=O)c1cnc(-c2ccc(OC)cc2)c(-c2ccc(C(=O)O)cc2)c1` [Example 76, 4-(5-(butylcarbamoyl)-2-(4-methoxyphenyl)pyridin-3-yl)benzoic Acid Hydrochloride], the inhibition at 10 µM was found to be 10%.

Still in this assay, the particulars now being: final 300 μM uric acid, 6 min, human GLUT9 stably expressing HEK293T cells, read-out: humans GLUT9 inhibitory activity (IC50 value (μM)).
As to `CCCCc1cnc(-c2ccc(OC)cc2)c(-c2ccc(CC(=O)O)c(F)c2)n1` [Example 72], the 50% inhibitory concentration (IC50) (commonly the concentration that inhibits the measured activity by half) came out at 0.526 µM.
On to `CCOCCc1cnc(-c2ccc(OC)cc2)c(-c2ccc(C(=O)O)cc2)c1` [Example 73], for which the IC50 was 0.104 µM.
Still for that read-out and setting: then `CCCCc1cnc(-c2ccc(OC(F)(F)F)cc2)c(-c2ccc(C(=O)O)cc2)n1` [Example 75], with 0.0844 µM; and `CCOCCCc1cnc(-c2ccc(OC)cc2)c(-c2ccc(C(=O)O)cc2)c1` [Example 77], with 0.0585 µM.
On to `COCc1cnc(-c2ccc(OC)cc2)c(-c2ccc(C(=O)O)cc2)c1` [Example 78], for which the IC50 was found to be 2.21 µM.
`CCCCc1cnc(-c2ccc(CCC)cc2)c(-c2ccc(C(=O)O)cc2)n1` [Example 79]: the IC50 was 0.369 µM.
As to `CCCCc1cnc(-c2ccc(OC)cc2)c(-c2ccc(C(=O)O)c(C)c2)n1` [Example 83], the IC50 turned out to be 0.0662 µM.
With `COCCCc1cnc(-c2ccc(OC)cc2)c(-c2ccc(C(=O)O)cc2)c1` [Example 84, 4-(2-(4-methoxyphenyl)-5-(3-methoxypropyl)pyridin-3-yl)benzoic Acid], the concentration for half-maximal inhibition (IC50) worked out at 0.117 µM.
Take `CCCCc1cnc(-c2ccc(COC)cc2)c(-c2ccc(C(=O)O)cc2)n1` [Example 86]: the 50% inhibitory concentration (IC50) was determined as 1.82 µM.
In the case of `CCCCc1cnc(-c2ccc(CC#N)cc2)c(-c2ccc(C(=O)O)cc2)n1` [Example 87], the half-maximal inhibitory concentration (IC50) stood at 1.79 µM.
`CCCCc1cnc(-c2ccc(C(C)C)cc2)c(-c2ccc(C(=O)O)cc2)n1` [Example 88]: the IC50 worked out at 0.928 µM.
The same measure, in the same setting: the same measure for `CCCCc1cnc(-c2ccc(C3COC3)cc2)c(-c2ccc(C(=O)O)cc2)n1` [Example 89]: 1.8 µM; for `CCCCc1cnc(-c2ccc(OC)cc2)c(-c2ccc(C(=O)O)c(O)c2)n1` [Example 91]: 0.247 µM; for `CCCCc1cnc(-c2ccc(OC)cc2)c(-c2ccc(C(=O)O)c(Cl)c2)n1` [Example 92]: 0.181 µM.
As for `CCCCc1cnc(-c2ccc(OC)cc2)c(-c2ccc(CCC(=O)O)c(F)c2)n1` [Example 93], the IC50 was found to be 0.184 µM.
For `COCCCc1cnc(-c2cc(F)c(OC)c(F)c2)c(-c2ccc(CCC(=O)O)cc2)c1` [Example 95], the IC50 is 0.0576 µM.
The same measure, in the same setting: then `COc1ccc(-c2ncc(CC3CC3)cc2-c2ccc(C(=O)O)cc2)cc1` [Example 96], with 0.0887 µM; and `COCCCc1cnc(-c2cc(F)c(OC)c(F)c2)c(-c2ccc(CCC(=O)O)cc2)n1` [Example 97], with 0.0795 µM.
The same measure, in the same setting: then `COc1c(F)cc(-c2ncc(CC(C)C)nc2-c2ccc(C(=O)O)cc2)cc1F` [Example 98], with 0.0605 µM; and `COc1c(F)cc(-c2ncc(CC(C)C)cc2-c2ccc(C(=O)O)cc2)cc1F` [Example 99], with 0.0514 µM; and `CCCCCCc1cnc(-c2ccc(OC)cc2)c(-c2ccc(C(=O)O)cc2)c1` [Example 100], with 0.082 µM.
On the same count and under the same terms, the same measure for `COc1ccc(-c2ncc(Cc3ccccc3)cc2-c2ccc(C(=O)O)cc2)cc1` [Example 101]: 0.164 µM; for `COCCc1cnc(-c2ccc(OC)cc2)c(-c2ccc(C(=O)O)cc2)c1` [Example 102]: 0.79 µM; for `COc1ccc(-c2ncc(CCc3ccccc3)cc2-c2ccc(C(=O)O)cc2)cc1` [Example 105]: 0.453 µM.
As to `COCCCc1cnc(-c2ccc(OC)c(F)c2)c(-c2ccc(C(=O)O)cc2)c1` [Example 106], the half-maximal inhibitory concentration (IC50) stood at 0.101 µM.
As to `COCCCc1cnc(-c2cc(F)c(OC)c(F)c2)c(-c2ccc(C(=O)O)cc2)c1` [Example 107], the IC50 turned out to be 0.0627 µM.
Regarding `COCCCc1cnc(-c2ccc(OC)c(F)c2)c(-c2ccc(CCC(=O)O)cc2)c1` [Example 108], the IC50 is 0.0712 µM.
On to `COCCCc1cnc(-c2cc(F)c(OC)c(F)c2)c(-c2ccc(C(=O)O)c(C)c2)n1` [Example 109], for which the 50% inhibitory concentration (IC50) stood at 0.0799 µM.
